# BindingDB's records for doi:10.1016/j.bmc.2023.117383 (Fuzhou University, 2023)
# What was measured:
# [1] = target: T1, Crossover junction endonuclease MUS81 (Homo sapiens, UniProt Q96NY9); experiment: Binding affinity to human GST-tagged MUS81-ECE1 expressed in Escherichia coli BL21(DE3)Rosetta2 cells assessed as dissociation constant by Surface plasmon resonance analysis
# T1 sequence (Q96NY9 whole entry): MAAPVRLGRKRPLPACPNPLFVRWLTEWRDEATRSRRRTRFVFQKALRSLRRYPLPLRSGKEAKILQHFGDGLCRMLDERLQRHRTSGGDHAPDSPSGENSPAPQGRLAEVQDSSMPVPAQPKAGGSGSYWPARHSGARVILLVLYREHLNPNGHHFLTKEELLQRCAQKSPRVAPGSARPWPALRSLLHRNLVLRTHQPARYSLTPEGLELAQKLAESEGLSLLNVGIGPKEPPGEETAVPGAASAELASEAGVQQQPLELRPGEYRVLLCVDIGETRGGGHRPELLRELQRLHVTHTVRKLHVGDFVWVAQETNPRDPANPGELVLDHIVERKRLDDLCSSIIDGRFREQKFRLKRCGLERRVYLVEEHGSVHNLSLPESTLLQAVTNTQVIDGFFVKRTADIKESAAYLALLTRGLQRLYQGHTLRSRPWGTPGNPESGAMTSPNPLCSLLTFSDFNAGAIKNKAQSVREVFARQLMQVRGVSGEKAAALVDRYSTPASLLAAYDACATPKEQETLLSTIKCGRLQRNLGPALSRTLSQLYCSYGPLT
# [2] = target: T1, Crossover junction endonuclease MUS81; experiment: Binding affinity to human GST-tagged MUS81-ECE2 expressed in Escherichia coli BL21(DE3)Rosetta2 cells assessed as dissociation constant by Surface plasmon resonance analysis
smiles,measurement,setting,value
O=C(N/N=C/c1cc(O)c(O)cc1O)c1cc2ccccc2cc1O,Kd,[1],6.1 nM
same,Kd,[2],6.1 nM
